This is an account of results in patent US6309874A, “Selection marker” (priority 1998, dated 2001).

The test system of test [1] is Na+,K+-ATPase. Kind of test: Pilot studies, total Na+,K+-ATPase of transfected cells. Type of test: biochemical. To be noted: 10^-5 M ouabain, 10 µM. As to the method: (§1) Cells were lysed by treatment with 1 mM Tris-HCl pH 7.5 on ice for 15 min and a crude membrane fraction was prepared as described (Horiuchi, A., Takeyasu, K., Mouradian, M., Jose, P and Felder, R (1993) Mol. Phamiacol. 43, 281-285). The membrane fraction was frozer, in aliquots and stored over-night at -70° C.

The subject of test [2] is ouabain-sensitive (endogenous) Na+,K+-ATPase. The experiment in a line: Pilot studies, ouabain-sensitive enzyme population. The test is classed as biochemical. As to the method:
as §1

Test [3] deals with COS-7 cells expressing wild type Na+,K+-ATPase. Kind of test: Cell attachment on fibronectin, wild type transfected cells. Type of test: cell-based, monkey. To be noted: different concentrations of ouabain, 0 to 1.0 mM, FIG. 2. As to the method: (§2) Cell attachment on fibronectin coted substrates was assayed in microtiterwells (Costar). All wells were preincubated over night at 4° C. with 5 microg/ml concentration of fibronectin. Before adding cells, each well was preincubated with 1% BSA for 30 min in 37° C. and later washed with serum free DMEM. Untransfected COS-7 cells and COS-7 cells expressing wild type or L799C Na+,K+-ATPase were grown in a 3 microCi/ml H3-thymidine containing medium supplemented with 10% fetal calf serum and harvested after approximately 72 hours at 60-80% confluence. Approximately 25,000 cells /wells were seeded in serum free DMEM. Cells were first incubated 15 min with different concentrations of oubain and then allowed to attach to fibronectin (5 μg/ml) coated substrates during 30 min of incubation in 37° C. and later washed with serum free DMEM. Radioactivity was measured in a Wallac Scintillation counter. Results are presented as % remaining radioactivity compared to untreated.

The target of test [4] is T1, wild type rat Na+,K+-ATPase a1 subunit (Rattus norvegicus, UniProt P06685).
T1 construct: expressed in transfected cells; crude membrane fraction
The experiment in a line: Na+,K+-ATPase-dependent ATP hydrolysis, natural enzyme. The test is classed as biochemical. As to the method: as §1

Test [5] has as its system cells transfected with mutant rat Na+,K+-ATPase a1. Kind of test: Cell survival in ouabain medium, mutant transfected cells.
The subject of test [6] is untransfected COS-7 cells. Kind of test: Cell attachment on fibronectin, untransfected cells. The test is classed as cell-based, monkey. To be noted: different concentrations of ouabain, 0 to 1.0 mM, FIG. 2. As to the method:
as §2

For test [7], the target named is T2, Leu799Cys (L799C) rat Na+,K+-ATPase a1 subunit (Rattus norvegicus, UniProt P06685, L800C).
T2 construct: expressed in transfected cells; crude membrane fraction
The experiment in a line: Na+,K+-ATPase-dependent ATP hydrolysis, mutated enzyme. The test is classed as biochemical. The procedure: as §1

In test [8] the test system is COS-7 cells expressing L799C Na+,K+-ATPase. Kind of test: Cell attachment on fibronectin, L799C transfected cells. Type of test: cell-based, monkey. To be noted: different concentrations of ouabain, 0 to 1.0 mM, FIG. 2. As to the method:
as §2

For test [9], the system named is cells with mutated murine and human NKA alpha 1-subunit. To be noted: read-out: IC50 for ouabain; cells with a mutation in murine and human NKA alpha 1-subunit, Cantley et al 1994; cited from earlier work.
The subject of test [10] is LLC-PK1 cells transfected with mutated (L799C and/or L801C) rat Na+,K+-ATPase alpha1 subunit. Kind of test: Survival study, transfected LLC-PK1 cells.
Test [11] concerns cells transfected with wild type rat Na+,K+-ATPase a1. The experiment in a line: Cell survival in ouabain medium, wild type transfected cells. To be noted: 500 μM ouabain.

In the case of `C[C@@H]1O[C@@H](O[C@H]2C[C@@H](O)[C@]3(CO)[C@H]4[C@H](O)C[C@]5(C)[C@@H](C6=CC(=O)OC6)CC[C@]5(O)[C@@H]4CC[C@]3(O)C2)[C@H](O)[C@H](O)[C@H]1O` [ouabain], in test [1], the “share of Na+,K+-ATPase resistant to ouabain” value is reported as “Approximately 60%”. Also, the “ouabain concentration that completely inhibited the enzyme population” value in [2] is 10^-5 M. In addition, the “cell attachment to fibronectin coated substrates” value is “loss of attachment” in test [3], “loss of attachment” in test [6], “decreased dose dependent” in test [6] (listed as oubain) and “no change in attachment” in test [8]. Also, in test [4], the inhibition at 2000 µM lay within 85 to 90%. Also, the IC100 in [4] (read-out: ouabain concentration that completely inhibited the enzyme population, pilot studies, ouabain-insensitive (transfected) wild type enzyme) amounted to 5000 µM. In addition, in test [5], the “ouabain concentration survived by the cells” value was “at least 1×10^-3 M”. Besides, the cell survival entry was “survived” in test [5] (longtime treatment with 500 μM ouabain); “died and died within a few days” in test [11]. Moreover, the “inhibition of the enzyme” value in [7] (ouabain concentrations up to 2 mM) is reported as “no significant inhibition”. In addition, in [7] (read-out: (Na,K)-ATPase activity in percent in comparison with not treated), the activity at 2000 µM is around 100%. Also, the IC50 in [9] was around 5 mM. In addition, the “growing and morphological characteristics of the cells” value in test [10] (as high as 500×10^-6 M ouabain) is “did not seem to alter”. Besides, the “cell survival, multiplication and exterior” value in [10] (ouabain concentrations up to 500 μM) is “survive, multiply and keep their natural exterior”.

As usually defined, the inhibition is the share of the control response that was lost under treatment. A lower inhibition goes with a weak effect. One may read the IC50 as the point on the concentration scale where inhibition reaches its midpoint.
